Reference: ChEMBL document CHEMBL5329202, “New aryl-/heteroarylpiperazine derivatives of 1,7-dimethyl-8,9-diphenyl-4-azatricyclo[5.2.1.02,6]dec-8-ene-3,5,10-trione: Synthesis and preliminary studies of biological activities” (Bioorg Med Chem, 2023)
Activity calls are given as the source filed them. No cut-off for these calls is given here.

Assays:
[1] = molecular target: 5-hydroxytryptamine receptor 2A (Rattus norvegicus) (UniProt P14842); assay: Displacement of [3H]ketanserin from Sprague-Dawley rat 5-HT2A receptor measured after 60 mins by competitive binding assay
SW480 = assay: Antiproliferative activity against human SW480 cells assessed as decrease in IL-6 level at IC50 measured after 72 hrs by ELISA assay relative to control; format: functional; set-up: scale not given: the % may be the effect or the level left
PC-3 = assay: Antiproliferative activity against human PC-3 cells assessed as decrease in IL-6 level at IC50 measured after 72 hrs by ELISA assay relative to control; format: functional; set-up: scale not given: the % may be the effect or the level left

Sequence of 5-hydroxytryptamine receptor 2A (Rattus norvegicus) (P14842 whole entry): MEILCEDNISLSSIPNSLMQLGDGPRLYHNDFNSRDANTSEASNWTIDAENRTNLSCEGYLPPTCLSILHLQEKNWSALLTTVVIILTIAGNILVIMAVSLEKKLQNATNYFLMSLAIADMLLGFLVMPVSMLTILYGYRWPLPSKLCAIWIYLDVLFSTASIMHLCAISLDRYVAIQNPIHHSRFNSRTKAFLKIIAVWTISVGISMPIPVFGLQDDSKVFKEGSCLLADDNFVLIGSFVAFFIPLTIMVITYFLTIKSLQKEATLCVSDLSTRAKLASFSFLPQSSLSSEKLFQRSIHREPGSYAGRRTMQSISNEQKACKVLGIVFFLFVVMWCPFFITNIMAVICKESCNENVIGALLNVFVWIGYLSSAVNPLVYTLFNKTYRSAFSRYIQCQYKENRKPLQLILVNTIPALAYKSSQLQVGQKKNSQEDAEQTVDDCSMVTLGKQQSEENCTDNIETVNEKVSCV

CC12C(=O)C(C)(C(c3ccccc3)=C1c1ccccc1)C1C(=O)N(CCCCN3CCN(c4ncccn4)CC3)C(=O)C12 (stereo not drawn) was tested. Which Activity [1] did it give?
Its Activity is “inactive”.

How did the Activity (SW480) turn out when CC12C(=O)C(C)(C(c3ccccc3)=C1c1ccccc1)C1C(=O)N(CCCCN3CCN(c4ccccc4Cl)CC3)C(=O)C12 (stereo not drawn) was run?
Its Activity is 48%.

CC12C(=O)C(C)(C(c3ccccc3)=C1c1ccccc1)C1C(=O)N(CCCCN3CCN(c4cccc(Cl)c4)CC3)C(=O)C12 (stereo not drawn) was tested. Which Activity (PC-3) did it give?
Its Activity is 51%.
